Key:
[1] = biological target: T1, proteasome in Molt-4 cells (human leukemia) (Homo sapiens, UniProt P20618+P28074); format: cell-based; conditions: assay of Example E, inhibition of MOLT4; read-out: MOLT4 (EC50)
T1 sequence (P28074 60-263): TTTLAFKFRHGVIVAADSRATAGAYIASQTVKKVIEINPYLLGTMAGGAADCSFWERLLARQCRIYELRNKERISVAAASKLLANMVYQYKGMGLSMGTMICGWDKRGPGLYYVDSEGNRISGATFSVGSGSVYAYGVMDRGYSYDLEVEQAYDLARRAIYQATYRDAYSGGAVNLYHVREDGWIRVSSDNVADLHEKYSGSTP
T1 sequence (P20618 29-241): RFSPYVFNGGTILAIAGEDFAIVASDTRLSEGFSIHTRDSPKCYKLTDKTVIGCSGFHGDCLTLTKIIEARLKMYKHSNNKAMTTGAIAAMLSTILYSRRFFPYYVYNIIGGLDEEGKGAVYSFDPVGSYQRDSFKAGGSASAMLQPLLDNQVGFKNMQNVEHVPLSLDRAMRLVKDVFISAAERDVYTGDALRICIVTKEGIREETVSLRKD
How it was run: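 Intact Molt-4 cells (6×10^6 cells/mL) in HEPES-buffered saline were preincubated with inhibitor 15 min at 37 °C, then given cell-permeable MeOSuc-FLF-AFC at 25 μM final.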

[2] = biological target: T2, 20S Human Erythrocyte Proteasome (HEP) (Homo sapiens, UniProt P20618+P28074); test: Chymotrypsin-like activity of 20S Human Erythrocyte Proteasome (HEP), IC50 determination; format: biochemical; conditions: assay of Example C, inhibition of HEP
T2 construct: 20S Human Erythrocyte Proteasome (HEP), purchased from Immatics Biotechnologies Inc; purchased Immatics Biotechnologies Inc., Tübingen, Germany; host or cells: human erythrocytes (natural source)
How it was run: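 20S proteasome at 0.2 μg/mL (about 0.6 nM catalytic sites) in 20 mM Tris with 0.04% SDS, preincubated 15 min at 37° C with inhibitor before Suc-LLVY-AMC (100 μM final). AMC fluorescence read in the linear range; triplicates, IC50 from concentration series.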

| Compound | EC50 [1] [nM] | IC50 [2] [nM] |
| --- | --- | --- |
| CCCCCCCCCCS(=O)(=O)N[C@@H](CCCNC(=N)N[N+](=O)[O-])C(=O)N[C@@H](CC(C)C)B1O[C@@H]2C[C@@H]3C[C@@H](C3(C)C)[C@]2(C)O1 [D.4.3, Decane-1-sulfonamide, N-[(1S)-1-[[[(1R)-1-[(3aS,4S,6S,7aR)-hexahydro-3a,5,5-trimethyl-4,6-methano-1,3,2-benzodioxaborol-2-yl]-3-methylbutyl]amino]carbonyl]-4-[[imino(nitroamino)methyl]amino]butyl]] | < 200 | < 10 |
| CCCCCCCCS(=O)(=O)N[C@@H](CCCNC(=N)N[N+](=O)[O-])C(=O)N[C@@H](CC(C)C)B1O[C@@H]2C[C@@H]3C[C@@H](C3(C)C)[C@]2(C)O1 [D.4.4, Octanesulfonamide, N-[(1S)-1-[[[(1R)-1-[(3aS,4S,6S,7aR)-hexahydro-3a,5,5-trimethyl-4,6-methano-1,3,2-benzodioxaborol-2-yl]-3-methylbutyl]amino]carbonyl]-4-[[imino(nitroamino)methyl]amino]butyl]] | < 200 | < 10 |
| CCCCOc1ccc(S(=O)(=O)N[C@@H](CCCNC(=N)N[N+](=O)[O-])C(=O)N[C@@H](CC(C)C)B2O[C@@H]3C[C@@H]4C[C@@H](C4(C)C)[C@]3(C)O2)cc1 [D.4.6, 4-Butoxyenzenesulfonamide, N-[(1S)-1-[[[(1R)-1-[(3aS,4S,6S,7aR)-hexahydro-3a,5,5-trimethyl-4,6-methano-1,3,2-benzodioxaborol-2-yl]-3-methylbutyl]amino]carbonyl]-4-[[imino(nitroamino)methyl]amino]butyl]] | < 200 | < 100 |
| CCCCc1ccc(S(=O)(=O)N[C@@H](CCCNC(=N)N[N+](=O)[O-])C(=O)N[C@@H](CC(C)C)B2O[C@@H]3C[C@@H]4C[C@@H](C4(C)C)[C@]3(C)O2)cc1 [D.4.7, 4-Butyl-benzenesulfonamide, N-[(1S)-1-[[[(1R)-1-[(3aS,4S,6S,7aR)-hexahydro-3a,5,5-trimethyl-4,6-methano-1,3,2-benzodioxaborol-2-yl]-3-methylbutyl]amino]carbonyl]-4-[[imino(nitroamino)methyl]amino]butyl]] | < 200 | < 100 |
| CCCCCc1ccc(S(=O)(=O)N[C@@H](CCCNC(=N)N[N+](=O)[O-])C(=O)N[C@@H](CC(C)C)B2O[C@@H]3C[C@@H]4C[C@@H](C4(C)C)[C@]3(C)O2)cc1 [D.4.8, 4-Pentyl-benzenesulfonamide, N-[(1S)-1-[[[(1R)-1-[(3aS,4S,6S,7aR)-hexahydro-3a,5,5-trimethyl-4,6-methano-1,3,2-benzodioxaborol-2-yl]-3-methylbutyl]amino]carbonyl]-4-[[imino(nitroamino)methyl]amino]butyl]] | < 200 | < 100 |
| CC(C)C[C@H](NC(=O)[C@@H](NS(=O)(=O)c1ccc2ccccc2c1)[C@@H](C)O)B1O[C@@H]2C[C@@H]3C[C@@H](C3(C)C)[C@]2(C)O1 [D.4.9, Naphthalene-2-sulfonamide, N-[(1S,2R)-1-[[[(1R)-1-[(3aS,4S,6S,7aR)-hexahydro-3a,5,5-trimethyl-4,6-methano-1,3,2-benzodioxaborol-2-yl]-3-methylbutyl]amino]carbonyl]-2-hydroxypropyl]] | < 200 | < 100 |
| CCCCCCCNC(=O)N[C@@H](CCCNC(=N)N[N+](=O)[O-])C(=O)N[C@@H](CC(C)C)B1O[C@@H]2C[C@@H]3C[C@@H](C3(C)C)[C@]2(C)O1 [D.6.3, N-[(1S)-1-[[[(1R)-1-[(3aS,4S,6S,7aR)-hexahydro-3a,5,5-trimethyl-4,6-methano-1,3,2-benzodioxaborol-2-yl]-3-methylbutyl]amino]carbonyl]-4-[[imino(nitroamino)methyl]amino]butyl]-N′-heptyl urea] | < 200 | < 10 |
| CCCCCCCCCCCNC(=O)N[C@@H](CCCNC(=N)N[N+](=O)[O-])C(=O)N[C@@H](CC(C)C)B1O[C@@H]2C[C@@H]3C[C@@H](C3(C)C)[C@]2(C)O1 [D.6.5, N-[(1S)-1-[[[(1R)-1-[(3aS,4S,6S,7aR)-hexahydro-3a,5,5-trimethyl-4,6-methano-1,3,2-benzodioxaborol-2-yl]-3-methylbutyl]amino]carbonyl]-4-[[imino(nitroamino)methyl]amino]butyl]-N′-undecylurea] | < 200 | < 10 |
| CCCCc1ccc(NC(=O)N[C@@H](CCCNC(=N)N[N+](=O)[O-])C(=O)N[C@@H](CC(C)C)B2O[C@@H]3C[C@@H]4C[C@@H](C4(C)C)[C@]3(C)O2)cc1 [D.6.8, N-[(1S)-1-[[[(1R)-1-[(3aS,4S,6S,7aR)-hexahydro-3a,5,5-trimethyl-4,6-methano-1,3,2-benzodioxaborol-2-yl]-3-methylbutyl]amino]carbonyl]-4-[[imino(nitroamino)methyl]amino]butyl]-N′-(4-butylphenyl) urea] | < 200 | < 100 |
| CCCCCCCOc1ccc(NC(=O)N[C@@H](CCCNC(=N)N[N+](=O)[O-])C(=O)N[C@@H](CC(C)C)B2O[C@@H]3C[C@@H]4C[C@@H](C4(C)C)[C@]3(C)O2)cc1 [D.6.9, N-[(1S)-1-[[[(1R)-1-[(3aS,4S,6S,7aR)-hexahydro-3a,5,5-trimethyl-4,6-methano-1,3,2-benzodioxaborol-2-yl]-3-methylbutyl]amino]carbonyl]-4-[[imino(nitroamino)methyl]amino]butyl]-N′-(4-heptyloxylphenyl) urea] | < 200 | < 10 |
| COc1ccccc1/C=C/C(=O)N[C@@H](CCCNC(=N)N[N+](=O)[O-])C(=O)N[C@@H](CC(C)C)B(O)O [D.7.1, Boronic acid, [(1R)-1-[[(2S)-5-[[imino(nitroamino)methyl]amino]-2-[[(2E)-3-(2-methoxyphenyl)-1-oxoprop-2-enyl]amino]-1-oxopentyl]amino]-3-methylbutyl]] | 2000 to 10000 | < 10 |

Second part, the compound after the results:

| EC50 [1] [nM] | IC50 [2] [nM] | Compound |
| --- | --- | --- |
| 2000 to 10000 | < 10 | C/C(=C\c1ccccc1)C(=O)N[C@@H](CCCNC(=N)N[N+](=O)[O-])C(=O)N[C@@H](CC(C)C)B(O)O [D.7.2, Boronic acid, [(1R)-1-[[(2S)-5-[[imino(nitroamino)methyl]amino]-2-[((E)-2-methyl-3-phenylacryl)amino]-1-oxopentyl]amino]-3-methylbutyl]] |
| 2000 to 10000 | < 10 | Cc1ccc(CCCC(=O)N[C@@H](CCCNC(=N)N[N+](=O)[O-])C(=O)N[C@@H](CC(C)C)B(O)O)cc1 [D.7.3, Boronic acid, [(1R)-1-[[(2S)-5-[[imino(nitroamino)methyl]amino]-2-[(4-(4-methylphenyl)butanoyl)amino]-1-oxopentyl]amino]-3-methylbutyl]] |
| 200 to 2000 | < 10 | CC(C)C[C@H](NC(=O)[C@H](CCCNC(=N)N[N+](=O)[O-])NC(=O)COc1ccc(C(C)C)cc1)B(O)O [D.7.5, Boronic acid, [(1R)-1-[[(2S)-5-[[imino(nitroamino)methyl]amino]-2-[(2-(4-isopropylphenoxy)acetyl)amino]-1-oxopentyl]amino]-3-methylbutyl]] |
| > 10000 | < 10 | CC(C)C[C@H](NC(=O)[C@H](CCCNC(=N)N[N+](=O)[O-])NC(=O)CCCC(=O)c1ccccc1)B(O)O [D.7.6, Boronic acid, [(1R)-1-[[(2S)-5-[[imino(nitroamino)methyl]amino]-2-[(5-oxo-5-phenylpentanoyl)amino]-1-oxopentyl]amino]-3-methylbutyl]] |
| > 10000 | < 10 | CCN(CC)c1ccc(C(=O)N[C@@H](CCCNC(=N)N[N+](=O)[O-])C(=O)N[C@@H](CC(C)C)B(O)O)cc1 [D.7.8, Boronic acid, [(1R)-1-[[(2S)-5-[[imino(nitroamino)methyl]amino]-2-[(4-diethylaminobenzoyl)amino]-1-oxopentyl]amino]-3-methylbutyl]] |
| 2000 to 10000 | < 10 | CC(C)C[C@H](NC(=O)[C@H](CCCNC(=N)N[N+](=O)[O-])NC(=O)c1ccc(C(C)C)cc1)B(O)O [D.7.11, Boronic acid, [(1R)-1-[[(2S)-5-[[imino(nitroamino)methyl]amino]-2-[(4-isopropylbenzoyl)amino]-1-oxopentyl]amino]-3-methylbutyl]] |
| > 10000 | < 10 | Cc1ccc(C(=O)N[C@@H](CCCNC(=N)N[N+](=O)[O-])C(=O)N[C@@H](CC(C)C)B(O)O)s1 [D.7.12, Boronic acid, [(1R)-1-[[(2S)-5-[[imino(nitroamino)methyl]amino]-2-[(5-methylthiophene-2-carbonyl)amino]-1-oxopentyl]amino]-3-methylbutyl]] |
| 200 to 2000 | < 10 | Cc1ccc(C)c(OCCCC(C)(C)C(=O)N[C@@H](CCCNC(=N)N[N+](=O)[O-])C(=O)N[C@@H](CC(C)C)B(O)O)c1 [D.7.17, Boronic acid, [(1R)-1-[[(2S)-5-[[imino(nitroamino)methyl]amino]-2-[[5-(2,5-dimethylphenoxy)-2,2-dimethylpentanoyl]amino]-1-oxopentyl]amino]-3-methylbutyl]] |
